{"source": "patent US11878910B2", "about": "“Ph-based structural change of water soluble carbon nanoparticles for encapsulation and release of therapeutic agents in biological systems” (SINON THERAPEUTICS INC., priority 2015, dated 2024)", "origin": "cited, not measured here", "data": [{"smiles": "C1=Cc2nc1c(-c1ccccc1)c1nc(c(-c3ccccc3)c3ccc([nH]3)c(-c3ccccc3)c3ccc([nH]3)c2-c2ccccc2)C=C1", "note": "[TPP, tetraphenylporphyrin]", "values": [{"measurement": "solubility in water", "value": "insoluble"}]}]}
